ChEMBL document CHEMBL3745637, “New hybrid molecules with anticonvulsant and antinociceptive activity derived from 3-methyl- or 3,3-dimethyl-1-[1-oxo-1-(4-phenylpiperazin-1-yl)propan-2-yl]pyrrolidine-2,5-diones” (Bioorg Med Chem, 2016)
Activity calls are given as the source filed them. No cut-off for these calls is given here.

Tests used:
[1] = tested on: Mus musculus; test: Anticonvulsant activity against Swiss mouse seizure model assessed as protection at 100 mg/kg, ip pretreated for 0.25 hrs by 6 Hz psychomotor seizure test; format: functional, organism-based
[2] = tested on: Mus musculus; test: Anticonvulsant activity in ip dosed Swiss mouse assessed as reduction in clonic seizures at 0.5 hrs by subcutaneous pentylenetetrazole seizure test; format: functional
[3] = Protective index, ratio of TD50 for neurotoxicity in ip dosed Swiss mouse to ED50 for anticonvulsant activity in ip dosed MES Swiss mouse model at 0.25 hrs; format: toxicity, organism-based; conditions: in vivo, read-out: Ratio TD50/ED50
[4] = Protective index, ratio of TD50 for neurotoxicity in ip dosed Swiss mouse to ED50 for anticonvulsant activity in ip dosed scPTZ Swiss mouse model at 0.25 hrs; format: toxicity, organism-based; conditions: in vivo, read-out: Ratio TD50/ED50
[5] = Protective index, ratio of TD50 for neurotoxicity in ip dosed Swiss mouse to ED50 for anticonvulsant activity in ip dosed Swiss mouse 6 Hz psychomotor seizure model at 0.25 hrs; format: toxicity, organism-based; conditions: in vivo, read-out: Ratio TD50/ED50
[6] = tested on: Mus musculus; test: Anticonvulsant activity in ip dosed Swiss mouse assessed as protection against maximal electroshock-induced seizures at 0.5 hrs; format: functional
[7] = Neurotoxicity in ip dosed Swiss mouse seizure model assessed as motor impairment pretreated for 0.25 hrs measured within 60 s by chimney test; format: toxicity, organism-based; conditions: in vivo
[8] = Protective index, ratio of TD50 for neurotoxicity in ip dosed Swiss mouse to ED50 for anticonvulsant activity in ip dosed Swiss mouse 6 Hz psychomotor seizure model at 0.5 hrs; format: toxicity, organism-based; conditions: in vivo, read-out: Ratio TD50/ED50
[9] = tested on: Mus musculus; test: Anticonvulsant activity in Swiss mouse assessed as protection against maximal electroshock-induced seizures at 300 mg/kg, ip pretreated for 0.5 hrs; format: functional, organism-based
[10] = tested on: Mus musculus; test: Anticonvulsant activity in Swiss mouse assessed as protection against maximal electroshock-induced seizures at 300 mg/kg, ip pretreated for 2 hrs; format: functional, organism-based
[11] = tested on: Mus musculus; test: Anticonvulsant activity in Swiss mouse assessed as protection against maximal electroshock-induced seizures at 100 mg/kg, ip pretreated for 2 hrs; format: functional, organism-based
[12] = tested on: Mus musculus; test: Anticonvulsant activity against Swiss mouse seizure model assessed as protection at 100 mg/kg, ip pretreated for 0.5 hrs by 6 Hz psychomotor seizure test; format: functional, organism-based
[13] = tested on: Mus musculus; test: Anticonvulsant activity in ip dosed Swiss mouse assessed as prolong latency to first seizure episode pretreated for 0.5 hrs measured after 30 mins by subcutaneous pentylenetetrazole seizure test; format: functional, organism-based
[14] = tested on: Mus musculus; test: Anticonvulsant activity in Swiss mouse assessed as prolong latency to first seizure episode at 60 mg/kg pretreated for 0.5 hrs measured after 30 mins by subcutaneous pentylenetetrazole seizure test; format: functional, organism-based
[15] = tested on: Mus musculus; test: Anticonvulsant activity against ip dosed Swiss mouse seizure model assessed as protection at 0.25 hrs by 6 Hz psychomotor seizure test; format: functional
[16] = tested on: Mus musculus; test: Anticonvulsant activity in ip dosed Swiss mouse assessed as protection against maximal electroshock-induced seizures at 0.25 hrs; format: functional
[17] = tested on: Mus musculus; test: Anticonvulsant activity in ip dosed Swiss mouse assessed as reduction in clonic seizures at 0.25 hrs by subcutaneous pentylenetetrazole seizure test; format: functional
[18] = tested on: Mus musculus; test: Anticonvulsant activity against ip dosed Swiss mouse seizure model assessed as protection at 0.5 hrs by 6 Hz psychomotor seizure test; format: functional
[19] = Neurotoxicity in ip dosed Swiss mouse seizure model assessed as motor impairment pretreated for 0.5 hrs measured within 60 s by chimney test; format: toxicity, organism-based; conditions: in vivo
[20] = Protective index, ratio of TD50 for neurotoxicity in ip dosed Swiss mouse to ED50 for anticonvulsant activity in ip dosed MES Swiss mouse model at 0.5 hrs; format: toxicity, organism-based; conditions: in vivo, read-out: Ratio TD50/ED50
[21] = Protective index, ratio of TD50 for neurotoxicity in ip dosed Swiss mouse to ED50 for anticonvulsant activity in ip dosed scPTZ Swiss mouse model at 0.5 hrs; format: toxicity, organism-based; conditions: in vivo, read-out: Ratio TD50/ED50
[22] = tested on: Mus musculus; test: Potency index, ratio of ethosuximide ED50 to compound ED50 for anticonvulsant activity in ip dosed scPTZ Swiss mouse model at 0.25 hrs; format: functional
[23] = organism: Rattus norvegicus; test: Displacement of [3H]Batrachotoxinin from sodium channel site 2 in rat cerebral cortex at 100 uM after 60 mins by scintillation counting method; format: tissue-based
[24] = organism: Rattus norvegicus; test: Displacement of [3H]Batrachotoxinin from sodium channel site 2 in rat cerebral cortex at 500 uM after 60 mins by scintillation counting method; format: tissue-based
[25] = organism: Rattus norvegicus; test: Displacement of [3H]nitrendipine from calcium channel L-Type dihydropyridine site in rat cerebral cortex at 100 uM after 120 mins by scintillation counting method; format: tissue-based
[26] = organism: Rattus norvegicus; test: Displacement of [3H]nitrendipine from calcium channel L-Type dihydropyridine site in rat cerebral cortex at 500 uM after 120 mins by scintillation counting method; format: tissue-based
[27] = target: T1, Glutamate NMDA receptor (Rattus norvegicus) (UniProt P35439+Q00959+Q00960+Q00961+Q62645+Q8VHN2+Q9R1M7); test: Displacement of [3H]CGP-39653 from NMDA receptor in rat cerebral cortex at 100 uM after 60 mins by scintillation counting method; format: tissue-based
[28] = target: T1, Glutamate NMDA receptor (Rattus norvegicus); test: Displacement of [3H]CGP-39653 from NMDA receptor in rat cerebral cortex at 500 uM after 60 mins by scintillation counting method; format: tissue-based
[29] = tested on: Mus musculus; test: Antinociceptive activity in ip dosed Swiss mouse assessed as reduction of formalin-induced licking at MES ED50 pretreated for 0.5 hrs measured during 1 to 5 mins; format: functional, organism-based
[30] = tested on: Mus musculus; test: Antinociceptive activity in ip dosed Swiss mouse assessed as reduction of formalin-induced licking at MES ED50 pretreated for 0.5 hrs measured during 15 to 20 mins; format: functional; design: scale not given: the % may be the effect or the level left

CC1CC(=O)N(C(C)C(=O)N2CCN(c3cccc(C(F)(F)F)c3)CC2)C1=O (stereo not given)
Activity [1]: Active | ED50 [2]: 51.6 mg/kg | selectivity ratio at 0.25 h [3]: 3.49 | selectivity ratio at 0.25 h [4]: 4.33 | selectivity ratio at 0.25 h [5]: 11.6 | ED50 [6]: 74.8 mg/kg | TD50 at 0.25 h [7]: 285 mg/kg | selectivity ratio at 0.5 h [8]: 12.7 | Activity [9]: Active | Activity [10]: Active | Activity [11]: inactive | Activity [12]: Active | Activity [13]: Dose-dependent effect | Activity [14]: Active | ED50 [15]: 24.6 mg/kg | ED50 [16]: 81.7 mg/kg | ED50 [17]: 65.7 mg/kg | ED50 [18]: 16.8 mg/kg | TD50 at 0.5 h [19]: 213 mg/kg | selectivity ratio at 0.5 h [20]: 2.85 | selectivity ratio at 0.5 h [21]: 4.13 | Ratio ED50 [22]: 2.2 | inhibition [23]: 29.9% | inhibition [24]: 76.3% | inhibition [25]: 38.1% | inhibition [26]: 78.5% | Activity [27]: inactive | Activity [28]: inactive | Activity [29]: inactive | Activity [30]: 84%
